Entries after “also recorded” stand apart in the source; their conditions may differ. Numbered stars: 1 amine (or outer) side, 2 acyl side, 3 side chain; on linkers, the order of the positions; unused ones are H or OH. Bridge positions count the residues as written; N and C are the ends. Square brackets hold non-standard residues; d marks the D form. Peptide text beside a SMILES is read from it. X1 = CC(C)CCCCCCCCC[C@H](CC(=O)[*:1])O[*:2]
How the values were obtained:
[1] = test system: OA-sensitized guinea pigs; test: Bronchoalveolar lavage cell counts after antigen challenge; assay type: in vivo, guinea pig; details: for eosinophil count in BAL fluid: after ovalbumin challenge; for BAL eosinophils: 24 h after OA-challenge; for airway eosinophil influx after antigen challenge: guinea pig, in vivo
Protocol: Analysis of Bronchoalveolar Cells
(§1) After assessment of antigen-induced airway hyperresponsiveness or 24 h after IL-5 injection, airway inflammation was assessed. Immediately before and 1, 24, 48, and 72 h after antigen challenge, bronchoalveolar lavage (BAL) was performed to determine the time-course of cellular infiltration into airways. Two aliquots of 10 ml sterile 37° C. saline were infused into the tracheal cannula. The BAL fluid was recovered manually by gentle aspiration with a disposable syringe after each infusion. The total cell number was determined using a Turk solution. Differential cell counts were performed on cytospin preparations (Cytospin 2, Shandon, England) by counting 300 cells after staining by the May-Grüwald-Giemsa method in a single-blind method.

[2] = test system: OA-sensitized guinea pigs; test: Antigen-induced airway hyperresponsiveness to methacholine (PC200); assay type: in vivo, guinea pig; details: for antigen (ovalbumin)-induced methacholine airway hyperresponsiveness: 24 h after OA challenge; for baseline airway responsiveness to methacholine: drug alone
Protocol: (§2) Guinea pigs weighing 200 to 250 g were actively sensitized by a modification of the method reported by Andersson et al., Int. Arch. Allergy Appl. […] Guinea pigs were pretreated with an i.p. injection of 30 mg/kg of cyclophosphamide. Two days later, the animals were immunized with 2.0 mg of ovalbumin and 100 mg of aluminum hydroxide [Al(OH)3]. A booster injection of 10 μg of OA together with 100 mg of Al(OH)3 was given 3 wk after the primary immunization.
Antigen-Induced Airway Hyperresponsiveness to Methacholine
Antigen-induced airway response to methacholine was measured 24 h after challenge. Guinea pigs were anaesthetized by an i.p. injection of 75 mg/kg of sodium pentobarbitone and were placed in a supine position. […] Exp. Path. […] After completion of all surgical procedures, the lungs were overinflated by two times tidal volume for two breaths by closing the outlet port of the respirator. This was done to standardize the volume history of the lungs. […] See Minami et al., Jpn.
Airway responsiveness to inhaled methacholine was expressed as the dose of methacholine required to provoke a 200% increase (PC200) in the Pao. Values for PC200 were logarithmically transformed for analysis and reported as the geometric mean [geometric SEM (GSEM)]. All measurements except for PC200 were expressed as mean±SEM. Variation between three or more groups was analyzed using analysis of variance (ANOVA) followed by Fisher's protected least significant difference. Variation between two groups was tested using Student's t test. A value of p<0.05 was accepted as an indication of statistical significance.

[3] = test system: OA-sensitized guinea pigs; test: Antigen-induced bronchoconstriction: specific airway resistance (sRaw) after ovalbumin challenge; assay type: in vivo, guinea pig; details: for sRaw: drug alone; for increase in sRaw caused by OA challenge (immediate bronchoconstriction): pre-treatment i.p. 60 min before antigen challenge
Text: Male albino Hartley strain guinea pigs were obtained from Sankyou Laboratory Service (Toyama, Japan), and were quarantined in the Animal Research Center of Kanazawa University for 1 wk before study. All animal procedures in this study complied with the standards specified in the Guideline for the Care and Use of Laboratory Animals at the Takara-machi Campus of Kanazawa University.
as §2
Animals were placed in a whole-body, double-chamber plethysmograph for measurement of specific airway resistance (sRaw) by a modification of the method described by Pennock et al., Appl. […] A respiratory mechanics analyzer (model PMUA+SAR, Buxco Electronics, Troy, N.Y.) was used to measure the phase shift between nasal and thoracic airflow and to compute sRaw on a breath by breath basis. A bias flow of air (20 ml/sec) was maintained through the nasal chamber to ensure a constant supply of fresh air to the animal. The analyzer subtracted this flow from its calculations. […] The nebulizer output was 0.14 ml/min. Baseline measurement of sRaw was obtained in all groups 5 min before antigen challenge.

guinea pigs = test: IL-5-induced airway eosinophil accumulation (BAL); assay type: in vivo, guinea pig; details: for BAL eosinophils: 24 h after IL-5 treatment; for airway eosinophil influx after treatment with IL-5: guinea pig, in vivo
Protocol: IL-5-Induced Airway Eosinophil Accumulation
Guinea pigs weighing 350 to 400 g were treated i.p. before IL-5 injection with TFMK (20 mg/kg), E6123 (0.1 mg/kg), or vehicle (n=7 in each group). Animals were lightly anesthetized with diethyl ether inhalation, and then 200 μl sterile PBS containing 20 ng IL-5 was intranasally injected into the airway.
as §1

cPLA2 = biological target: T1, cPLA2 (Homo sapiens, UniProt P47712); details: Zhu et al., J. Immunol. 163:3423-3429, 1999; cited from earlier work
T1 sequence (P47712 1-749): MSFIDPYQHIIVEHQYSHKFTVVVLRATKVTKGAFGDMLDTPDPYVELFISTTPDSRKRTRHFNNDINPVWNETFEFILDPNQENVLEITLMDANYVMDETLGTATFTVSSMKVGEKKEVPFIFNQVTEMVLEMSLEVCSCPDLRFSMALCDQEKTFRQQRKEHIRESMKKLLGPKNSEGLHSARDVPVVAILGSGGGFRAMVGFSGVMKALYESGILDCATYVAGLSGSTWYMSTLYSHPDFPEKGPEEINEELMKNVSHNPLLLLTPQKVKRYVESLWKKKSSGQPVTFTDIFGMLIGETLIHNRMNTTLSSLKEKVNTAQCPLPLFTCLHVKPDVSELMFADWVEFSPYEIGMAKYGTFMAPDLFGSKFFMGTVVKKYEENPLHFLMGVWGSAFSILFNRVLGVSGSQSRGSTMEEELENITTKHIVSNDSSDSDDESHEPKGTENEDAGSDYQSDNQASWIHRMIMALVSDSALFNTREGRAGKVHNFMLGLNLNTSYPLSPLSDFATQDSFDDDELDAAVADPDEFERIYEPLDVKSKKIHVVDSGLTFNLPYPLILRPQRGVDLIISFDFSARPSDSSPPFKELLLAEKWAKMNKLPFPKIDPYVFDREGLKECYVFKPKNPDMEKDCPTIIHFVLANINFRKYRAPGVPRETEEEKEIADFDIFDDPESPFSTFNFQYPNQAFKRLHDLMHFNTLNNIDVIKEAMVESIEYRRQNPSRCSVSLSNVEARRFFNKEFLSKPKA

[4] = test system: TXB2 production from whole blood; test: Effect of i.p. TFMK on TXB2 production ex vivo (FMLP/CB-stimulated whole blood); assay type: in vivo, guinea pig; details: FMLP 10^−6 M + 5 μg/ml cytochalasin B; after 20 mg/kg i.p. TFMK
Protocol: Effect of i.p. TFMK on TXB2 Production ex vivo
Sixty min after TFMK (20 mg/kg or vehicle i.p.; n=4 in each group), guinea pigs were anesthetized and heparinized blood (20 U/ml) was obtained via right carotid artery. Duplicate 1-ml aliquots of whole blood were incubated first with 5 μg/ml CB for 2 min and subsequently with 10^−6 M FMLP for 30 additional min at room temperature. Control samples from the same animals were incubated with buffer alone. Immediately after centrifugation, TXB2 was measured by enzyme immunoassay using reagents obtained from Cayman Chemical (Ann Arbor, Mich.).

bronchial airways = test: Lung histology after ovalbumin challenge; assay type: in vivo, guinea pig; details: 2-20 mg/kg TFMK, 24 h
Text: After washing with sterile saline, the lung was fixed by perfusion with 10% formalin. Lung sections were stained with hematoxylin and eosin.

SMILES	eosinophil count in BAL fluid [1]	BAL eosinophils [1]	airway eosinophil influx after antigen challenge [1]	antigen (ovalbumin)-induced methacholine airway hyperresponsiveness [2]	baseline airway responsiveness to methacholine [2]	sRaw [3]	increase in sRaw caused by OA challenge (immediate bronchoconstriction) [3]	BAL eosinophils (guinea pigs)	airway eosinophil influx after treatment with IL-5 (guinea pigs)	also measured
CC1=C(C)C(=O)C(CCCCC#CCCCC#CCO)=C(C)C1=O [AA-861]	no effect									
Cc1nnc2n1-c1sc3c(c1C(c1ccccc1Cl)=N[C@H]2C)CCN(C(=O)C1CC1)C3 [E6123]		1.6±0.6 ×10^5/ml	dose-dependently blocked	complete blockade	not altered; also recorded: neither drug alone had any effect	neither drug alone had any effect	not attenuated	0.4±0.1 ×10^5/ml	dose-dependently blocked	BAL total cell number (guinea pigs; after IL-5 treatment): 3.3±0.4 ×10^5/ml
CC(C)CCCCCCCCC[C@@H]1CC(=O)N[C@@H](CCC(=O)O)C(=O)N[C@@H](CC(C)C)C(=O)N[C@H](CC(C)C)C(=O)N[C@@H](C(C)C)C(=O)N[C@@H](CC(=O)O)C(=O)N[C@H](CC(C)C)C(=O)N[C@@H](CC(C)C)C(=O)O1 [Surfactin] (EL[dL]VD[dL]L; linker N-C via X1)										activity of cPLA2 (cPLA2): inhibit or reduce the activity
CCCCC/C=C\C/C=C\C/C=C\C/C=C\CCCC(=O)C(F)(F)F [TFMK, arachidonic trifluoromethyl ketone]		2.1±0.7 ×10^5/ml	dose-dependently blocked		not altered; also recorded: neither drug alone had any effect	neither drug alone had any effect	not attenuated	0.7±0.2 ×10^5/ml	dose-dependently blocked	PC200 (provocative concentration of methacholine causing a 200% increase in Pao) ([2]; antigen challenged animals pretreated with 20 mg/kg TFMK, 24 h after challenge, geometric mean (GSEM)): 218 ± 0.08 µg/mL; increase in stimulated TXB2 production from whole blood [4]: 13.5±10.5%; inflammatory cell infiltration in epithelial layer and lamina propria (histology) (bronchial airways): blocked cell infiltration progressively
CC(C)(C)c1ccc(C(=O)CCCN2CCC(OC(c3ccccc3)c3ccccc3)CC2)cc1 [ebastine]				had no effect			significantly attenuated			
COc1ccc2c(c1)c(CC(=O)O)c(C)n2C(=O)c1ccc(Cl)cc1 [indomethacin]	no effect			neither indomethacin, a COX inhibitor, nor AA861, a 5-LO inhibitor, blocked			not attenuated			

Reference: patent US20020165119A1, “Method of treating inflammatory conditions by inhibiting cytosolic phospholipase A2” (priority 2001, published 2002)
